Data set [1] has as its system C2C12. The data set is described as follows: Upregulation of PPAR-gamma expression in mouse C2C12 cells at 1 uM by ELISA analysis. The data set is classed as functional, cell-based. (In general: In an ELISA, binding on a coated surface is turned into a signal by an enzyme label.)
Data set [2] has as its system Rattus norvegicus. The data set is described as follows: Effect on serum ALT level in dexamethasone-induced Wistar rat model at 17.5 mg/kg, sc administered once daily for 11 days and fasted for 12 hrs at end of the experimental period by biochemical analysis. It counts as functional, organism-based. To be noted: time 11.5 day.
Data set [3] deals with Rattus norvegicus. Kind of data set: Effect on serum AST level in dexamethasone-induced Wistar rat model at 17.5 mg/kg, sc administered once daily for 11 days and fasted for 12 hrs at end of the experimental period by biochemical analysis. The data set is classed as functional, organism-based. The following applies: time 11.5 day.
Data set [4] relates to Rattus norvegicus. Kind of data set: Antidiabetic activity against dexamethasone-induced Wistar rat model assessed as decrease in serum VLDL level at 17.5 mg/kg, sc administered once daily for 11 days and fasted for 12 hrs at end of the experimental period. The data set is classed as functional, organism-based. To be noted: time 11.5 day.
Data set [5] relates to Rattus norvegicus. Kind of data set: Hypolipidemic activity against dexamethasone-induced Wistar rat model assessed as decrease in serum HDL-c level at 17.5 mg/kg, sc administered once daily for 11 days and fasted for 12 hrs at end of the experimental period. It counts as functional, organism-based. To be noted: time 11.5 day.
For data set [6], the system named is Rattus norvegicus. The data set is described as follows: Antidiabetic activity against dexamethasone-induced Wistar rat diabetic model assessed as restoration of histopathological changes at 17.5 mg/kg, sc administered once daily for 11 days and fasted for 12 hrs at end of the experimental period by hematoxylin and eosin staining based microscopic analysis. It counts as functional, organism-based. To be noted: time 11.5 day.

Data set [7] relates to Rattus norvegicus. Kind of data set: Hypolipidemic activity against dexamethasone-induced Wistar rat model assessed as decrease in serum TG level at 17.5 mg/kg, sc administered once daily for 11 days and fasted for 12 hrs at end of the experimental period. It counts as functional, organism-based. The following applies: time 11.5 day.
Data set [8] relates to C2C12. Kind of data set: Cytotoxicity against mouse C2C12 cells assessed as reduction in cell viability at 100 to 200 uM incubated for 24 hrs by MTT assay. It counts as toxicity, cell-based. To be noted: c2c12, 24 h, dose 100-200 µM. In general terms: Formazan colour is commonly taken as a measure of viable cells.
Data set [9] has as its system C2C12. Kind of data set: Antidiabetic activity in mouse C2C12 cells assessed as increase in glucose uptake incubated for 30 mins. It counts as functional, cell-based.
The test system of data set [10] is C2C12. Kind of data set: Upregulation of PPAR-gamma expression in mouse C2C12 cells by ELISA analysis. It counts as functional, cell-based. The following applies: dose 6.25-100 µM.
The test system of data set [11] is Rattus norvegicus. Kind of data set: Antidiabetic activity against dexamethasone-induced Wistar rat model assessed as decrease in serum glucose level at 17.5 mg/kg, sc administered once daily for 11 days and fasted for 12 hrs at end of the experimental period. The following applies: time 11.5 day. The data set is classed as functional, organism-based.
In data set [12] the test system is Rattus norvegicus. The data set is described as follows: Hypolipidemic activity against dexamethasone-induced Wistar rat model assessed as decrease in serum triglyceride level at 17.5 mg/kg, sc administered once daily for 11 days and fasted for 12 hrs at end of the experimental period. It counts as functional, organism-based. To be noted: time 11.5 day.
In data set [13] the test system is Rattus norvegicus. The data set is described as follows: Hypolipidemic activity against dexamethasone-induced Wistar rat model assessed as decrease in serum LDL-c level at 17.5 mg/kg, sc administered once daily for 11 days and fasted for 12 hrs at end of the experimental period. It counts as functional, organism-based. The following applies: time 11.5 day.
Data set [14] deals with Rattus norvegicus. The data set is described as follows: Effect on serum ALT level in dexamethasone-induced sc dosed Wistar rat model administered once daily for 11 days and fasted for 12 hrs at end of the experimental period by biochemical analysis. The data set is classed as functional, organism-based. To be noted: time 11.5 day.
Data set [15] deals with Rattus norvegicus. Kind of data set: Effect on serum AST level in dexamethasone-induced sc dosed Wistar rat model administered once daily for 11 days and fasted for 12 hrs at end of the experimental period by biochemical analysis. It counts as functional, organism-based. To be noted: time 11.5 day.
Data set [16] concerns Rattus norvegicus. The data set is described as follows: Antidiabetic activity against dexamethasone-induced sc dosed Wistar rat model assessed as decrease in serum VLDL level administered once daily for 11 days and fasted for 12 hrs at end of the experimental period. The data set is classed as functional, organism-based. To be noted: time 11.5 day.
In data set [17] the test system is Rattus norvegicus. The data set is described as follows: Hypolipidemic activity against dexamethasone-induced sc dosed Wistar rat model assessed as decrease in serum HDL-c level administered once daily for 11 days and fasted for 12 hrs at end of the experimental period. The data set is classed as functional, organism-based. To be noted: time 11.5 day.
The subject of data set [18] is Rattus norvegicus. The data set is described as follows: Antidiabetic activity against dexamethasone-induced sc dosed Wistar rat diabetic model assessed as restoration of histopathological changes administered once daily for 11 days and fasted for 12 hrs at end of the experimental period by hematoxylin and eosin staining based microscopic analysis. It counts as functional, organism-based. To be noted: time 11.5 day.

Data set [19] concerns Rattus norvegicus. The data set is described as follows: Hypolipidemic activity against dexamethasone-induced sc dosed Wistar rat model assessed as decrease in serum TG level administered once daily for 11 days and fasted for 12 hrs at end of the experimental period. It counts as functional, organism-based. To be noted: time 11.5 day.
Data set [20] deals with Rattus norvegicus. Kind of data set: Antidiabetic activity against dexamethasone-induced sc dosed Wistar rat model assessed as decrease in serum glucose level administered once daily for 11 days and fasted for 12 hrs at end of the experimental period. It counts as functional, organism-based. The following applies: time 11.5 day.
In data set [21] the test system is Rattus norvegicus. Kind of data set: Hypolipidemic activity against dexamethasone-induced sc dosed Wistar rat model assessed as decrease in serum triglyceride level administered once daily for 11 days and fasted for 12 hrs at end of the experimental period. It counts as functional, organism-based. To be noted: time 11.5 day.
Data set [22] has as its system Rattus norvegicus. Kind of data set: Hypolipidemic activity against dexamethasone-induced sc dosed Wistar rat model assessed as decrease in serum LDL-c level administered once daily for 11 days and fasted for 12 hrs at end of the experimental period. The data set is classed as functional, organism-based. The following applies: time 11.0 day.

The values that follow come from ChEMBL document CHEMBL5356949, “Development of novel thiazolidine-2,4-dione derivatives as PPAR-γ agonists through design, synthesis, computational docking, MD simulation, and comprehensive in vitro and in vivo evaluation” (RSC Med Chem, 2023).

The source made the active and inactive calls. The rule behind the calls is not given here.

As for `CCc1ccc(CCOc2ccc(CC3SC(=O)NC3=O)cc2)nc1` (stereo unspecified), in data set [1], the result was Active.
Turning to `O=C(CN1C(=O)S/C(=C\c2cccs2)C1=O)Nc1cccc(C(F)(F)F)c1`, the outcome in data set [2], in data set [3], in data set [4], in data set [5], in data set [6] and in data set [7] was Active. Further, the outcome in data set [9], in data set [11], in data set [12] and in data set [13] was Active. Besides, the Activity entry in [8] was “Non-Toxic”; in data set [10], “Dose-Dependent Effect”.
Regarding `O=C(CN1C(=O)S/C(=C\c2cccs2)C1=O)Nc1cc(Cl)c(Cl)cc1Cl`, the result in data set [2], in [3], in data set [4], in data set [5], in data set [6] and in data set [7] was Active. The result in [9], in data set [11], in data set [12] and in [13] was Active. Further, the Activity result is “Non-Toxic” in data set [8] and “Dose-Dependent Effect” in data set [10].
As to `Cc1c(Cl)cccc1NC(=O)CN1C(=O)S/C(=C\c2cccs2)C1=O`, the result in [14], in [15], in [16], in data set [17], in data set [18] and in data set [19] was Active. The outcome in data set [9], in data set [20], in data set [21] and in data set [22] was Active. In data set [8], the Activity result is “Non-Toxic”.
